Reference: publication PMC8754229 (Journal of Virology, 2022)

What was measured:
[1] = statement in Discussion, no test described, ref not given; cited from earlier work
[2] = biological target: SARS-CoV-2 M^pro (Severe acute respiratory syndrome coronavirus 2, UniProt P0DTD1); type: biochemical

CC(C)=CC[C@@H](O)C1=CC(=O)c2c(O)ccc(O)c2C1=O [Shikonin]
Cytotoxicity (in words) [1]: strong cytotoxicity

maltopentaose
Inhibition against M^pro (in words) [2]: none of them showed potent inhibition

CC(=O)O[C@H]1[C@H](OCCc2ccc(O)c(O)c2)O[C@H](CO[C@@H]2O[C@H](CO)[C@@H](O)[C@H](O)[C@H]2O)[C@@H](OC(=O)/C=C/c2ccc(O)c(O)c2)[C@@H]1OC[C@@H]1O[C@@H](C)[C@H](O)[C@@H](O)[C@H]1O [tubuloside A]
Inhibition against M^pro (in words) [2]: none of them showed potent inhibition
